Earlier results on 1 compound are cited in US20250302889A1, “Ingestible Nutritive Compositions With Prebiotics, Probiotics, and Postbiotics” (First Day Life, Inc., priority 2024, published 2025).

The conditions of data set [1]: 24 hours; probiotics 10^8 CFUs, diclofenac sodium 150 mg/kg, single dose.
For data set [2] the following is noted: 24 hours after injection, vs carrageenan control group.
For data set [3] the following is noted: 24 hours after injection, vs carrageenan control group. This is another data set of the same source.

Structures are written as SMILES.

As for `O=C(O)Cc1ccccc1Nc1c(Cl)cccc1Cl` [diclofenac sodium], the inhibition of edema result in data set [1] is “about 34%”. For the same compound, the “stair climbing activity (steps climbed)” value in data set [2] is given as “climbed significantly more steps”. Besides, the motility test score entry in data set [3] is “scored significantly higher”.
